The values below are quoted from earlier work in article PMC8915598.

A short description of the data set: not told.

Take `CC(=O)Nc1ccc(Cl)cc1`: the “log partition octanol / water” value is listed as 2.12 log10. `NC(=O)c1ccc(N)cc1`: the “log partition octanol / water” value is given as -0.41 log10.
